{"source": "patent EP0632806B1", "about": "(priority 1992, dated 1993)", "key": {"[1]": {"system": "pentobarbital anaesthetized rats subject to coronary artery occlusion", "details": "rat, in vivo"}, "[2]": {"system": "pentobarbital anaesthetized rats", "details": "rat, in vivo"}}, "note": "Structures can show the parent of a compound that is named as a salt.", "data": [{"smiles": "C=CCN1CC[C@]23c4c5ccc(O)c4O[C@H]2C(=O)CC[C@@]3(O)[C@H]1C5", "note": "[naloxone, naloxone hydrochloride]", "values": [{"measurement": "incidence of VF arrhythmias", "setting": "[1]", "result": "slightly decreased"}, {"measurement": "BP", "setting": "[2]", "result": "103±5"}, {"measurement": "HR", "setting": "[2]", "result": "379±6"}, {"measurement": "PR", "setting": "[2]", "result": "57±1"}, {"measurement": "QRS", "setting": "[2]", "result": "29±1"}, {"measurement": "QT", "setting": "[2]", "result": "41±1"}]}]}
